Test results taken from paper PMC10313368 (The Journal of Clinical Investigation, 2023).

System: HUVECs
Experiment: mRNA angiogenesis array (TaqMan Array qPCR) in HUVECs
Type: cell-based, human
Design: ANG,RNASE4, array raw value (Figure 8B, well A10) / GAPDH, array raw value (Figure 8B, well A2) / EDIL3, array raw value (Figure 8B, well B2) / FGF1, array raw value (Figure 8B, well B4) / TIMP2, array raw value (Figure 8B, well E10) / SEMA3F, array raw value (Figure 8B, well E6) / CEACAM1, array raw value (Figure 8B, well F2) / LYVE1, array raw value (Figure 8B, well F6): scale not given here
Settings: HUVEC, 1%O2+32-134D
Method: Angiogenesis array. Total RNA was isolated from MIO-MI cells (8 hours) and HUVECs (16 […]
cDNA was prepared with QuantiTect® Reverse Transcription Kit (Qiagen, Cat# 205311). RT-qPCR assay was performed with pre-configured TaqMan Array 96-Well FAST Plate for human angiogenic gene expression (Applied Biosystems, Inc) following the manufacture’s protocol. Each plate contains pre-defined genes including 18S, GAPDH and HPRT1 endogenous controls.
TaqMan Array plates were prepared by loading on each well 5 μl of cDNA sample (30 ng) with nuclease-free water and 5 μl of TaqMan™ Fast Advanced Master Mix (Applied Biosystem, Cat# […]
4444554). The reaction was performed using the QuantStudio™ 3 Flex Real‐Time PCR System as follows: 2 minutes at 50°C (stage 1); 10 minutes at 95°C (stage 2); 15 seconds at 95°C and 1 minutes at 60°C for 40 cycles (stage 3). The data were analyzed by using HPRT1 as endogenous […]
The clustering heatmaps were produced with “pheatmap” library in R with scale = row and clustering method = complete.
HUVEC cells, Euclidean distance was used to quantify the difference in qPCR screening. The Euclidean distance was calculated using “dist” function from R’s default stat library that measures the distance between 2 vectors (i.e., total qPCR expression values in control and treatment). In […]

## Brc1ccc2c(-c3csc(-c4c[nH]c5c(Br)cccc45)n3)c[nH]c2c1 [32-134D, 4-(6-bromo-1H-indol-3-yl)-2-(7-bromo-1H-indol-3-yl)thiazole]
  18S, array raw value (Figure 8B, well A1): 20.1818
  ADAMTS1, array raw value (Figure 8B, well D10): 29.7994
  AMOT, array raw value (Figure 8B, well D12): 39.0386
  ANG,RNASE4, array raw value (Figure 8B, well A10): 28.1406
  ANGPT1, array raw value (Figure 8B, well A11): 30.8384
  ANGPT2, array raw value (Figure 8B, well A12): 32.8047
  ANGPTL2, array raw value (Figure 8B, well E12): 30.2341
  ANGPTL4, array raw value (Figure 8B, well H5): 21.86
  CD44, array raw value (Figure 8B, well E1): 23.3811
  CDH5, array raw value (Figure 8B, well E2): 24.9237
  CEACAM1, array raw value (Figure 8B, well F2): 29.9396
  COL4A1, array raw value (Figure 8B, well G2): 30.6479
  COL4A2, array raw value (Figure 8B, well G3): 28.7346
  COL18A1, array raw value (Figure 8B, well G6): 29.7073
  CSF3, array raw value (Figure 8B, well H1): 33.4203
  CTGF, array raw value (Figure 8B, well C10): 23.3834
  CXCL2, array raw value (Figure 8B, well E3): 30.6168
  CXCL10, array raw value (Figure 8B, well D5): 36.21
  EDIL3, array raw value (Figure 8B, well B2): 26.4682
  EPHB2, array raw value (Figure 8B, well B3): 28.307
  FGF1, array raw value (Figure 8B, well B4): 29.8889
  FGF2, array raw value (Figure 8B, well B5): 30.0294
  FIGF, array raw value (Figure 8B, well F12): 33.3841
  FLT1, array raw value (Figure 8B, well E5): 30.21
  FN1, array raw value (Figure 8B, well G7): 28.5669
  FOXC2, array raw value (Figure 8B, well G1): 27.8513
  FST, array raw value (Figure 8B, well B7): 31.5936
  GAPDH, array raw value (Figure 8B, well A2): 20.3521
  GRN, array raw value (Figure 8B, well H2): 22.2393
  GUSB, array raw value (Figure 8B, well A4): 25.0498
  HEY1, array raw value (Figure 8B, well F3): 34.3049
  HPRT1, array raw value (Figure 8B, well A3): 25.0367
  HSPG2, array raw value (Figure 8B, well G5): 27.52
  IFNB1, array raw value (Figure 8B, well D3): 35.432
  IL8, array raw value (Figure 8B, well B9): 26.4133
  IL12A, array raw value (Figure 8B, well D6): 34.4259
  ITGA4, array raw value (Figure 8B, well D2): 28.3072
  ITGAV, array raw value (Figure 8B, well F4): 26.1181
  ITGB3, array raw value (Figure 8B, well H6): 25.3974
  KDR, array raw value (Figure 8B, well F10): 30.1984
  LYVE1, array raw value (Figure 8B, well F6): 34.6146
  MDK, array raw value (Figure 8B, well B11): 23.8862
  MMP2, array raw value (Figure 8B, well A9): 21.2904
  NRP1, array raw value (Figure 8B, well H10): 28.4453
  NRP2, array raw value (Figure 8B, well F9): 25.1088
  PDGFB, array raw value (Figure 8B, well C1): 28.0672
